Data: patent US20230381157A1, “RIFABUTIN FOR THE TREATMENT OF ACINETOBACTER BAUMANNII” (University of Southern California, priority 2018, published 2023)
In brackets after ≈: the same amount, converted by molar mass. Entries after “also recorded” stand apart in the source; their conditions may differ. Read-outs that look alike come from different tables or passages of the source.

Columns and labels:
A. baumannii = experiment: MIC, broth microdilution, A. baumannii clinical isolates / strain panel; format: cell-based, Acinetobacter baumannii; details: for MIC50 / MIC90: A. baumannii strain panel
K. pneumonia = experiment: MIC, broth microdilution; format: cell-based; details: Klebsiella pneumoniae, K. pneumonia KPC-KP1
E. coli = experiment: MIC, broth microdilution; format: cell-based; details: Escherichia coli
E. coli JJ1886 = format: cell-based, Escherichia coli; details: TSA
A. baumannii HUMC1 = format: in vivo, mouse; details: for lung CFUs: lungs at 24 hrs post infection
A. baumannii LAC-4 = format: in vivo, mouse; details: C3H mice, 10 mg/kg/daily or 1 mg/kg for 3 days, listed as RBT
[1] = system: GFP expressing reporter strain of A. baumannii HUMC1; format: cell-based, Acinetobacter baumannii; details: addition of amino acids to RPMI vs RPMI alone; 6 hours
LAC-4 = format: in vivo, Galleria mellonella; details: G. mellonella
HepG2 = details: top screen hits; IC50 against A. baumannii HUMC1 in 50% serum
HEK293T = experiment: Specificity: mammalian cell cytotoxicity / inhibition of bacteria growth (CC50/IC50)
[2] = 5 mg/kg/daily for 3 days, oral gavage
[3] = 5 mg/kg/daily for 3 days, oral gavage, listed as RBT

## CO[C@H]1/C=C/O[C@@]2(C)Oc3c(C)c(O)c4c(c3C2=O)C2=NC3(CCN(CC(C)C)CC3)NC2=C(NC(=O)/C(C)=C\C=C\[C@H](C)[C@H](O)[C@@H](C)[C@@H](O)[C@@H](C)[C@H](OC(C)=O)[C@@H]1C)C4=O [rifabutin]
A. baumannii; A. baumannii, RPMI with serum
  fold more potent than rifampin (RIF): 133 fold
A. baumannii; AB044, MHII
  Rifabutin MIC: 3.12 µg/mL
A. baumannii; AB044, RPMI
  Rifabutin MIC: 0.78 µg/mL
A. baumannii; AB046, MHII
  Rifabutin MIC: 0.19 µg/mL
A. baumannii; AB046, MHII (first line)
  Rifabutin MIC: 6.25 µg/mL
A. baumannii; AB307-0294, MHII
  Rifabutin MIC: 6.25 µg/mL
A. baumannii; AB307-0294, RPMI
  Rifabutin MIC: < 0.05 µg/mL
A. baumannii; AB15827, MHII
  Rifabutin MIC: 3.13 µg/mL
A. baumannii; AB15827, RPMI
  Rifabutin MIC: 0.2 µg/mL
A. baumannii; ARLG-1314, MHII
  Rifabutin MIC: 6.25 µg/mL
A. baumannii; ARLG-1314, RPMI
  Rifabutin MIC: < 0.05 µg/mL
A. baumannii; ARLG-1777, MHII
  Rifabutin MIC: 6.25 µg/mL
A. baumannii; ARLG-1777, RPMI
  Rifabutin MIC: 3.13 µg/mL
A. baumannii; ARLG-1915, MHII
  Rifabutin MIC: 3.13 µg/mL
A. baumannii; ARLG-1915, RPMI
  Rifabutin MIC: 0.1 µg/mL
A. baumannii; ATCC 17978, MHII
  Rifabutin MIC: 3.12 µg/mL
A. baumannii; ATCC 17978, RPMI
  Rifabutin MIC: < 0.05 µg/mL
A. baumannii; Acinetobacter baumannii, A. baumannii (strain not named), MHII
  MIC: 4 µg/mL (≈ 4.72 µM)
A. baumannii; Acinetobacter baumannii, A. baumannii (strain not named), RPMI with serum
  MIC: 0.031 µg/mL (≈ 0.0366 µM)
A. baumannii; Acinetobacter baumannii, A. baumannii VA-AB21, MHII
  MIC: 3.12 µg/mL (≈ 3.69 µM)
A. baumannii; Acinetobacter baumannii, A. baumannii VA-AB21, RPMI
  MIC: 0.391 µg/mL (≈ 0.462 µM)
A. baumannii; Acinetobacter baumannii, CAMHB
  MIC50: 3.13 µg/mL (≈ 3.7 µM)
  MIC90: 6.25 µg/mL (≈ 7.38 µM)
A. baumannii; Acinetobacter baumannii, RPMI
  MIC50: 0.39 µg/mL (≈ 0.46 µM)
  MIC90: 3.13 µg/mL (≈ 3.7 µM)
A. baumannii; Acinetobacter baumannii, ATCC17978, A. baumannii ATCC17978 and HUMC1, MHII
  MIC: 2 µg/mL (≈ 2.36 µM)
A. baumannii; Acinetobacter baumannii, ATCC17978, A. baumannii ATCC17978 and HUMC1, RPMI
  MIC: < 0.0625 µg/mL
A. baumannii; Acinetobacter baumannii, up to
  fold lower MIC in RPMI than in Mueller-Hinton-based medium (CAMHB): up to 200 fold
A. baumannii; HUMC6, MHII
  Rifabutin MIC: 25 µg/mL
A. baumannii; HUMC6, RPMI
  Rifabutin MIC: 3.13 µg/mL
A. baumannii; HUMC10, MHII
  Rifabutin MIC: 12.5 µg/mL
A. baumannii; HUMC10, RPMI
  Rifabutin MIC: < 0.05 µg/mL
A. baumannii; LAC -- 4, MHII
  Rifabutin MIC: 0.78 µg/mL
A. baumannii; LAC -- 4, RPMI
  Rifabutin MIC: 1.56 µg/mL
A. baumannii; LACUSC-01, MHII
  Rifabutin MIC: 6.25 µg/mL
A. baumannii; LACUSC-01, RPMI
  Rifabutin MIC: < 0.05 µg/mL
A. baumannii; NIH1, MHII
  Rifabutin MIC: 3.13 µg/mL
A. baumannii; NIH1, RPMI
  Rifabutin MIC: 3.13 µg/mL
A. baumannii; UH118, MHII
  Rifabutin MIC: 3.13 µg/mL
A. baumannii; UH118, RPMI
  Rifabutin MIC: 0.2 µg/mL
A. baumannii; UH516, MHII
  Rifabutin MIC: > 25 µg/mL
A. baumannii; UH516, RPMI
  Rifabutin MIC: > 25 µg/mL
A. baumannii; UH2207, MHII
  Rifabutin MIC: 6.25 µg/mL
A. baumannii; UH2207, RPMI
  Rifabutin MIC: 3.13 µg/mL
A. baumannii; UH6507, MHII
  Rifabutin MIC: 3.13 µg/mL
A. baumannii; UH6507, RPMI
  Rifabutin MIC: 0.39 µg/mL
A. baumannii; VA-AB21, MHII
  Rifabutin MIC: 3.12 µg/mL
A. baumannii; VA-AB21, RPMI
  Rifabutin MIC: 0.391 µg/mL
A. baumannii; VA-AB74, MHII
  Rifabutin MIC: 6.25 µg/mL
A. baumannii; VA-AB74, RPMI
  Rifabutin MIC: 3.13 µg/mL
K. pneumonia; MHII
  MIC: 25 µg/mL (≈ 29.5 µM)
K. pneumonia; RPMI
  MIC: 12.5 µg/mL (≈ 14.8 µM)
E. coli; E. coli DH5a, MHII
  MIC: 6.25 µg/mL (≈ 7.38 µM)
E. coli; E. coli JJ1886, MHII
  MIC: 6.25 µg/mL (≈ 7.38 µM)
E. coli; E. coli JJ1886, RPMI
  MIC: 6.25 µg/mL (≈ 7.38 µM)
E. coli JJ1886
  Mutation Frequency: 3.89E−08
A. baumannii HUMC1; 5 mg/kg for 3 days, […]
  survival: about 80%
A. baumannii HUMC1; [2]
  survival: significantly improved
  lung CFUs: significantly lower CFUs in the lung
A. baumannii HUMC1; [3]
  survival: significantly improved survival
  lung CFUs: significantly reduced lung CFUs; also recorded: significantly lower CFUs in the lung
A. baumannii HUMC1; 10 mg/kg/day for 3 days, oral gavage, listed as RBT
  survival: modest improvement in survival; also recorded: modest survival benefit
A. baumannii HUMC1; 10 mg/kg/day for 3 days, at 24 hours
  reduction in the median CFUs in the blood as compared to RIF-treated mice: 7 log
A. baumannii HUMC1; C3H mice, 10 mg/kg/daily for 3 days, oral gavage, blood at 24 hrs
  CFUs in blood (vs RIF): significant reduction in CFUs
A. baumannii HUMC1; murine pneumonia, 5 mg/kg
  improvement of survival rates: over 70%
A. baumannii HUMC1; murine pneumonia, 5 mg/kg, day 7 post-infection
  bacterial burden: about 2 Log10(CFU/mg lung)
A. baumannii LAC-4
  efficacy RBT vs RIF: no difference in efficacy
[1]
  inhibition of GFP fluorescence: less inhibition of GFP fluorescence
LAC-4
  efficacy RBT vs RIF: no difference in efficacy
HepG2
  Specificity HepG2 (CC50/IC50): 148.31
HEK293T; IC50 vs A. baumannii ATCC 17978, RPMI + 50% serum
  Specificity HEK293T (CC50/IC50): 506006.298
HEK293T; IC50 vs A. baumannii ATCC 17978, RPMI alone
  Specificity HEK293T (CC50/IC50): 1961.478
HEK293T; IC50 vs A. baumannii HUMC1, RPMI + 50% serum
  Specificity HEK293T (CC50/IC50): 97331.320
HEK293T; IC50 vs A. baumannii HUMC1, RPMI alone
  Specificity HEK293T (CC50/IC50): 33559.242
HEK293T; top screen hits, IC50 against A. baumannii HUMC1 in 50% serum
  Specificity HEK293T (CC50/IC50): 148.31
